According to patent US6376209B2, “Increasing the FVII sensitivity of a thromboplastin reagent” (Dade Behring Marburg GmbH, priority 1997, dated 2002):

Key:
Test in all cases: Quick's thromboplastin time (PT), Schnitger & Gross
Type in all cases: biochemical
control plasma Patho II = test system: control plasma Patho II
Description: (§1) Quick's thromboplastin time (PT) is then determined using a Schnitger & Gross as follows:
(§2) Heat reagents and tubes to 37° C.;
(§3) Introduce 100 μl of plasma into the tubes;
(§4) Incubate for 1 min in the thermoblock;
(§5) Add 200 μl of thromboplastin and at the same time start the measuring operation;
(§6) shake the tube briefly, place it in the measuring position of the Schnitger & Gross, and insert the electrode holder up to the limit stop;
(§7) Read off the coagulation time.
The spread was calculated from the ratio of the coagulation times for the dilution of the StHPl and the StHPl, and the FVII sensitivity was calculated from the ratio of the coagulation times for FVII-MP and STHPL.
Standard human plasma, the control plasma Patho II and an FVII-deficient plasma were used as samples. The reagents were stored at 4° C. and 37° C. and the coagulation time was repeated after 7 and 14 days. The spread was calculated from the ratio of the coagulation times of the Patho II and the StHPl, and the FVII sensitivity was calculated from the ratio of the coagulation times for FVII-MP and the STHPL.

Standard human plasma = conditions: for Coagulation time, Sample: 100%: ascorbic acid 1 mM, stabilization after 6 h (iron: after 1 h)
Description: (§8) Quick's thromboplastin time (PT) was then determined using a Schnitger & Gross as follows:
as §2
(§9) Introduce […] of control plasma N or FVII-deficient plasma into the tubes;
as §4
(§10) Add 200 μl of thromboplastin and at the same time start the measuring operation; shake the tube briefly and place it in the measuring position of the Schnitger & Gross, and insert the electrode holder up to the limit stop;
as §7, §1, §3, §5, §6

FVII-deficient plasma = test system: FVII-deficient plasma; set-up: Coagulation time, Sample: FVII: unit not given beside the values; conditions: for Coagulation time FVII-MP / FVII sens.: FVII-MP/100%: 0.5 sec; for Coagulation time, Sample: FVII / FVII sens.: FVII/100%: ascorbic acid 1 mM, Fe(II)SO4 or CuCl 0.01 mM, stabilization after 6 h (iron: after 1 h); for Coagulation time FVII-MF / FVII-sens. FVII-MP/100%: 0.75 sec, incubated 37° C., 90 min
Description: as §8, §2, §9, §4, §10, §7, §1, §3, §5, §6

[1] = 1.5 mM added to Thromborel S heated 95° C., 0.5 sec
[2] = 1.5 mM added to Thromborel S heated 95° C.
[3] = reagent stored 18 h/4° C., ascorbic acid 1 mM, Fe(II)SO4 or CuCl 0.01 mM, stabilization after 6 h (iron: after 1 h)
[4] = reagent stored 7 days 4° C., ascorbic acid 1 mM, Fe(II)SO4 or CuCl 0.01 mM, stabilization after 6 h (iron: after 1 h)
[5] = reagent stored 7 days 37° C., ascorbic acid 1 mM, Fe(II)SO4 or CuCl 0.01 mM, stabilization after 6 h (iron: after 1 h)
[6] = 0.00003% added to Thromborel S heated 120° C.
[7] = 0.0003% added to Thromborel S heated 120° C.
[8] = 0.003% added to Thromborel S heated 120° C.
[9] = 0.03% added to Thromborel S heated 120° C.
[10] = 0.3% added to Thromborel S heated 120° C.
[11] = 0.01 mM added to Thromborel S heated 95° C., 0.5 sec
[12] = 0.025 mM added to Thromborel S heated 95° C., 0.5 sec
[13] = 0.05 mM added to Thromborel S heated 95° C., 0.5 sec
[14] = 0.1 mM added to Thromborel S heated 95° C., 0.5 sec
[15] = 0.5 mM added to Thromborel S heated 95° C., 0.5 sec
[16] = 0.01 mM added to Thromborel S heated 95° C.
[17] = 0.025 mM added to Thromborel S heated 95° C.
[18] = 0.05 mM added to Thromborel S heated 95° C.
[19] = 0.1 mM added to Thromborel S heated 95° C.
[20] = 0.5 mM added to Thromborel S heated 95° C.

## O=S(=O)(F)Cc1ccccc1 [PMSF, phenylmethylsulfonyl fluoride]
Control plasma Patho II; [1]
  Coagulation time Patho II: 21.9 s
  Spread: Patho II/100%: 2.0
Standard human plasma; [1]
  Coagulation time 100%: 10.7 s
FVII-deficient plasma; [2]
  Coagulation time FVII-MP: 259 s
  FVII sens.: FVII-MP/100%: 24.2

## O=C1O[C@H]([C@@H](O)CO)C(O)=C1O [ascorbic acid]
Control plasma Patho II; [3]
  Coagulation time, Sample: Patho II: 51.4
  Spread: Patho II/100%: 3.8
Control plasma Patho II; [4]
  Coagulation time, Sample: Patho II: 51.3
  Spread: Patho II/100%: 3.7
Control plasma Patho II; [5]
  Coagulation time, Sample: Patho II: 51.5
  Spread: Patho II/100%: 3.5
Control plasma Patho II; reagent stored 14 days 4° C., ascorbic acid 1 mM, Fe(II)SO4 or CuCl 0.01 mM, stabilization after 6 h (iron: after 1 h)
  Coagulation time, Sample: Patho II: 51.1
Control plasma Patho II; reagent stored 14 days 37° C., ascorbic acid 1 mM, Fe(II)SO4 or CuCl 0.01 mM, stabilization after 6 h (iron: after 1 h)
  Coagulation time, Sample: Patho II: 53.1
Standard human plasma; reagent stored 18 h/4° C., Fe(II)SO4 or CuCl 0.01 mM in Thromborel S heated 85° C., 3 sec
  Coagulation time, Sample: 100%: 13.7
Standard human plasma; reagent stored 7 days 4° C., Fe(II)SO4 or CuCl 0.01 mM
  Coagulation time, Sample: 100%: 14
Standard human plasma; reagent stored 7 days 37° C., Fe(II)SO4 or CuCl 0.01 mM
  Coagulation time, Sample: 100%: 14.7
Standard human plasma; reagent stored 14 days 4° C., Fe(II)SO4 or CuCl 0.01 mM
  Coagulation time, Sample: 100%: 14.1
Standard human plasma; reagent stored 14 days 37° C., Fe(II)SO4 or CuCl 0.01 mM
  Coagulation time, Sample: 100%: 15.3
FVII-deficient plasma; reagent stored 18 h/4° C.
  Coagulation time, Sample: FVII: 157.7
  FVII sens.: FVII/100%: 11.5
FVII-deficient plasma; reagent stored 7 days 4° C.
  Coagulation time, Sample: FVII: 154.3
  FVII sens.: FVII/100%: 11.0
FVII-deficient plasma; reagent stored 7 days 37° C.
  Coagulation time, Sample: FVII: 181.1
  FVII sens.: FVII/100%: 12.3
FVII-deficient plasma; reagent stored 14 days 4° C.
  Coagulation time, Sample: FVII: 161.6
  FVII sens.: FVII/100%: 11.5
FVII-deficient plasma; reagent stored 14 days 37° C.
  Coagulation time, Sample: FVII: 195.8
  FVII sens.: FVII/100%: 12.8

## OO [H2O2]
Standard human plasma; 0.00003% added to Thromborel S heated 120° C., 0.75 sec, incubated 37° C., 90 min
  Coagulation time 100%: 11.9 s
Standard human plasma; 0.0003% added to Thromborel S heated 120° C., 0.75 sec, incubated 37° C., 90 min
  Coagulation time 100%: 11.7 s
Standard human plasma; 0.003% added to Thromborel S heated 120° C., 0.75 sec, incubated 37° C., 90 min
  Coagulation time 100%: 11.4 s
Standard human plasma; 0.03% added to Thromborel S heated 120° C., 0.75 sec, incubated 37° C., 90 min
  Coagulation time 100%: 11.5 s
Standard human plasma; 0.3% added to Thromborel S heated 120° C., 0.75 sec, incubated 37° C., 90 min
  Coagulation time 100%: 15 s
FVII-deficient plasma; [6]
  Coagulation time FVII-MF: 132 s
  FVII-sens. FVII-MP/100%: 11.1
FVII-deficient plasma; [7]
  Coagulation time FVII-MF: 133 s
  FVII-sens. FVII-MP/100%: 11.4
FVII-deficient plasma; [8]
  Coagulation time FVII-MF: 139 s
  FVII-sens. FVII-MP/100%: 12.2
FVII-deficient plasma; [9]
  Coagulation time FVII-MF: 143 s
  FVII-sens. FVII-MP/100%: 12.4
FVII-deficient plasma; [10]
  Coagulation time FVII-MF: 156 s
  FVII-sens. FVII-MP/100%: 10.4

## Nc1ccc(CS(=O)(=O)F)cc1 [pa-PMSF, 4-aminophenylmethanesulfonyl fluoride]
Control plasma Patho II; [11]
  Coagulation time Patho II: 22.3 s
  Spread: Patho II/100%: 2.1
Control plasma Patho II; [12]
  Coagulation time Patho II: 21.8 s
  Spread: Patho II/100%: 2.1
Control plasma Patho II; [13]
  Coagulation time Patho II: 22.2 s
  Spread: Patho II/100%: 2.1
Control plasma Patho II; [14]
  Coagulation time Patho II: 21.7 s
  Spread: Patho II/100%: 2.0
Control plasma Patho II; [15]
  Coagulation time Patho II: 23.i
  Spread: Patho II/100%: 2.1
Standard human plasma; [11]
  Coagulation time 100%: 10.6 s
Standard human plasma; [12]
  Coagulation time 100%: 10.6 s
Standard human plasma; [13]
  Coagulation time 100%: 10.6 s
Standard human plasma; [14]
  Coagulation time 100%: 10.7 s
Standard human plasma; [15]
  Coagulation time 100%: 10.8 s
FVII-deficient plasma; [16]
  Coagulation time FVII-MP: 144 s
  FVII sens.: FVII-MP/100%: 13.6
FVII-deficient plasma; [17]
  Coagulation time FVII-MP: 147 s
  FVII sens.: FVII-MP/100%: 13.8
FVII-deficient plasma; [18]
  Coagulation time FVII-MP: 161 s
  FVII sens.: FVII-MP/100%: 15.2
FVII-deficient plasma; [19]
  Coagulation time FVII-MP: 172 s
  FVII sens.: FVII-MP/100%: 16.1
FVII-deficient plasma; [20]
  Coagulation time FVII-MP: 298 s
  FVII sens.: FVII-MP/100%: 27.6
